Experimental data: US20220177561A1, “Models and Methods Useful for the Treatment of Serrated Colorectal Cancer” (Sanford Burnham Prebys Medical Discovery Institute, priority 2018, published 2022)

Key:
WT organoids = assay: Interferon response of WT small intestine organoids (3D culture); assay type: cell-based, mouse
Protocol: (§1) For generation of small intestine organoids, organoids were collected in ice-cold TrypLE solution (e.g., Life Technologies) to remove Matrigel, then pipetted 5 cycles and incubated 5 min at 37° C. to obtain single-cell suspension. Cells were washed twice in PBS 3% FBS and resuspended at room temperature with PBS with 100 μg/ml DNase I for 10 min before staining with anti-H-2Kb (clone AF6-88.5.5.3; eBioscience). For antigen presentation in MODE-K cells, cells were washed in PBS, trypsinized and wash with warm medium. Then, cells were resuspended and stained with anti-H-2Kk (clone 36-7-5; BioLegend) and anti-H-2Dk (clone 15-5-5; BD Pharmingen). Dead cells were excluded after 7-AAD staining. All flow cytometry experiments were performed on a BD LSRFortessa 14-colors analyzer at the Sanford Burnham Prebys Medical Discovery Institute Shared FACS Facility and flow cytometry data were analyzed using FlowJo software (Tree Star Inc.).
(§2) Intestinal epithelial cell (IEC) isolation was performed as described previously Llado et al., Repression of Intestinal Stem Cell Function and Tumorigenesis through Direct Phosphorylation of β-catenin and Yap by PKCζ. Cell Reports (2015) 10, 740-754, with some modification. […] Adenoma fragments were counted after isolation and a total of 250-500 fragments were mixed with 100 μl of growth factor reduced-Matrigel and plated in 12- or 24-well plates. […]

ZKO organoids = assay: Interferon response of PKCζ-deficient (ZKO) small intestine organoids (3D culture); assay type: cell-based, mouse; conditions: 3 μM for 24 hours then drug-free culture, qRT-PCR
Protocol: as §1, §2

[1] = tested on: serrated tumors of DKO^IEC mice; assay: TGF-βR1-specific inhibition experiment in DKO^IEC mice; assay type: in vivo, mouse
Protocol: For CD8+ T cell depletion (FIG. 4), 10-week-old LKO^IEC mice were injected intraperitoneally with 200 μg of anti-CD8 antibody (clone 2.43) or control IgG twice a week for 5 weeks until they were sacrificed. For the TGF-βR1-specific inhibition experiment, 10-week-old DKO^IEC mice were treated twice a day with a dose of 10 mg of galunisertib (Tauriello et al., 2018) per os for 6 weeks until they were sacrificed. Control mice were treated with vehicle. For checkpoint immunotherapy, either 10-week-old or 13-week-old DKO^IEC mice were injected intraperitoneally with a dose of 10 mg/kg (body mass) of anti-PD-L1 antibody (clone 6E11) twice a week for 3 weeks until they were sacrificed. For the combination therapy of anti-PD-L1 antibody and TGF-βR1-specific inhibitor, 23-week-old DKO^IEC mice were treated twice a day with a dose of 10 mg of galunisertib per os and injected intraperitoneally with a dose of 10 mg/kg (body mass) of anti-PD-L1 antibody twice a week for 3 weeks until they were sacrificed. Anti-PD-L1 antibody was provided by de Sauvage FJ (Genentech).
Organs were isolated, rinsed in ice-cold PBS, fixed in 10% neutral buffered formalin overnight at 4° C., dehydrated, and embedded in paraffin. Sections (5 μm) were stained with hematoxylin and eosin (H&E). For immunohistochemistry, sections were deparaffinized, rehydrated, and then treated for antigen retrieval. After blocking in Protein Block Serum-Free solutions (DAKO), tissues were incubated with primary antibody overnight at 4° C. followed by incubation with biotinylated secondary antibody. Endogenous peroxidase was quenched in 3% H2O2 in water for 10 min at room temperature. Antibodies were visualized with avidin/biotin complex (e.g., Vectastain Elite; Vector Laboratories) using diaminobenzidine as the chromagen. For immunofluorescence, fresh frozen organs were embedded in Tissue-Tek OCT compound (e.g., Sakura) and section of 10 μm were fixed in methanol, washed with PBS and then incubated with the primary antibodies. Washed sections were incubated with Alexa-conjugated secondary antibodies (e.g., Life Technologies) and examined with a Zeiss LSM 710 NLO Confocal Microscope. In situ hybridization for murine Ereg was carried out using RNAscope Multiplex Fluorescent Assay kit (Advanced Cell Diagnostics) following manufacturer's instructions. The probe corresponding to CDS region of murine Ereg (Accession #: NM_007950.2, probe region: 116-1496; Advanced Cell Diagnostics; Cat #: 437981). Cell death was analyzed using the In-Situ Cell Death Detection kit, TMR red (Thermo) for TUNEL. Masson's Trichrome staining was carried out following manufacturer's instructions (Sigma HT15-1KT).
Flow cytometry experiments were performed using fresh small intestinal tissue and organoid preparations. For the analyses of small intestinal tissue, a half part of duodenum, jejunum, and ileum was used for quantitative flow cytometry analysis of immune cell population of lamina propria. Briefly, small intestines were rinsed in cold PBS, minced into small pieces, incubated in HBSS with EDTA (5 mM) and digested with collagenase (0.05 mg/ml) for 30 min at 37° C., followed by a discontinuous Percoll separation method (40 and 75%) to purify immune cells. The cells concentrated at the interface were collected and washed in cold PBS. Red blood cells were removed with lysing buffer (BD Pharm Lyse) and live cells were counted using Trypan blue and then saturated with mouse Fc Block (purified anti-mouse CD16/CD32; 1:50; clone 2.4G2; BD Pharmingen) 30 min at 4° C. before incubating with specific dyed antibodies.
Total RNA from mouse tissues and cultured organoids was extracted using the TRIZOL reagent (e.g., Invitrogen) and the RNeasy Mini Kit (e.g., Qiagen), followed by DNase treatment. […]

[2] = 10-week-old DKO^IEC mice, 10 mg per os twice a day for 6 weeks
[3] = 10-week-old DKO^IEC mice, 6 weeks

SMILES | expression of interferon-responsive genes Irf7, Oas1a, Isg15, and Cxcl10 (WT organoids; 3 μM for 24 hours then drug-free culture, qRT-PCR) | MHC class I long-chain H-2K^b on the surface (WT organoids; flow cytometry) | expression of interferon-responsive genes Irf7, Oas1a, Isg15, and Cxcl10 (ZKO organoids) | tumor load [1, 2] | tumor number [1, 2] | tumor size [1, 2] | incidence of invasive cancer [1, 3] | progression of SSA/P to the adenocarcinoma stage [1, 3] | proportion of PD-L1^+/CD45^+ cells infiltrating DKO^IEC tumors ([1]; CD45/PD-L1 staining) | collagen deposition ([1]; Masson's trichrome staining of small intestinal tumors) | proportion of Th17 cells in the tumors ([1]; flow cytometry) | proportion of CD8^+ T cells ([1]; flow cytometry, DKO^IEC tumors) | proportion of CD11b^+ myeloid cells ([1]; flow cytometry, DKO^IEC tumors) | proportion of Treg cells ([1]; flow cytometry, DKO^IEC tumors) | expression of TGF-β-responsive genes, such as Angpt12, Cdkn2b, Il11, and Ereg ([1]; qRT-PCR) | stromal phospho-SMAD2 ([1]; staining of small intestinal tumors)
Nc1ncn([C@H]2C[C@H](O)[C@@H](CO)O2)c(=O)n1 [5-AZA-CdR, 5-aza-2-deoxycytidine] | robustly induced | upregulated | severely abrogated | – | – | – | – | – | – | – | – | – | – | – | – | –
Cc1cccc(-c2nn3c(c2-c2ccnc4ccc(C(N)=O)cc24)CCC3)n1 [galunisertib] | – | – | – | did not reduce | did not reduce | did not reduce | especially reduced | suppressed | not affected | inhibition | reduction | did not significantly change | did not significantly change | did not significantly change | reduced expression | inhibition
